Reference: PubChem BioAssay AID340 (DTP/NCI, 2004)
Where “and” joins values, the source holds several entries; their conditions need not be identical. Identical values can stand only once. Inconclusive results and toxic doses are left out.

System: CD2F1 mice, ip reticulum cell sarcoma, survival T/C
Assay: NCI In Vivo Anticancer Drug Screen. Data for tumor model Reticulum Cell Sarcoma (Kelley Mouse) (intraperitoneal) in CD2F1 (CDF1) mice
Details: endpoint: median survival time, schedule: Q01DX010 (ip), higher = longer survival
Protocol: The antitumor activity of compounds was measured in mice bearing transplantable tumors. Survival or tumor size were measured and the results are expressed as the measurement made in the treated group (T) divided by the measurement made in the vehicle treated control group (C). The tumor model used in this assay is Reticulum Cell Sarcoma (Kelley Mouse) (intraperitoneal) in CD2F1 (CDF1) mice

[1] = dose: 25.0 mg/kg/injection, vehicle: saline
[2] = dose: 50.0 mg/kg/injection, vehicle: saline
[3] = dose: 100.0 mg/kg/injection, vehicle: saline
[4] = dose: 200.0 mg/kg/injection, vehicle: saline
[5] = dose: 80.0 mg/kg/injection, vehicle: saline
[6] = dose: 2.0 mg/kg/injection, vehicle: saline
[7] = dose: 4.0 mg/kg/injection, vehicle: saline
[8] = dose: 8.0 mg/kg/injection, vehicle: saline
[9] = dose: 16.0 mg/kg/injection, vehicle: saline
[10] = dose: 7.5 mg/kg/injection, vehicle: saline
[11] = dose: 15.0 mg/kg/injection, vehicle: saline
[12] = dose: 30.0 mg/kg/injection, vehicle: saline
[13] = dose: 60.0 mg/kg/injection, vehicle: saline
[14] = dose: 31.3 mg/kg/injection, vehicle: saline
[15] = dose: 62.5 mg/kg/injection, vehicle: saline
[16] = dose: 125.0 mg/kg/injection, vehicle: saline
[17] = dose: 250.0 mg/kg/injection, vehicle: saline
[18] = dose: 6.25 mg/kg/injection, vehicle: saline
[19] = dose: 12.5 mg/kg/injection, vehicle: saline
[20] = dose: 32.0 mg/kg/injection, vehicle: saline
[21] = dose: 3.13 mg/kg/injection, vehicle: saline
[22] = dose: 500.0 mg/kg/injection, vehicle: saline
[23] = dose: 1.25 mg/kg/injection, vehicle: saline
[24] = dose: 2.5 mg/kg/injection, vehicle: saline
[25] = dose: 5.0 mg/kg/injection, vehicle: saline
[26] = dose: 10.0 mg/kg/injection, vehicle: saline
[27] = dose: 1.0 mg/kg/injection, vehicle: saline
[28] = dose: 18.8 mg/kg/injection, vehicle: saline
[29] = dose: 37.5 mg/kg/injection, vehicle: saline
[30] = dose: 75.0 mg/kg/injection, vehicle: saline

In the case of `CSc1ncnc2nc[nH]c12`, the T/C [1] is reported as 100 % of control, the T/C [2] is reported as 100 % of control and the T/C [3] is reported as 93 % of control. The T/C [4] was 100 % of control.
In the case of `OCC1OC(n2cnc3c(=S)nc[nH]c32)C(O)C1O` (stereo not drawn), the T/C (dose: 20.0 mg/kg/injection, vehicle: saline) is reported as 117 % of control, the T/C [5] is reported as 170 % of control and 177 % of control and the T/C (dose: 160.0 mg/kg/injection, vehicle: saline) is reported as 180 % of control.
With `O=C(Nc1ccc(NC2=NCCN2)cc1)c1ccc(C(=O)Nc2ccc(NC3=NCCN3)cc2)cc1` the T/C [6] was 120 % of control and 121 % of control, the T/C [7] was 168 % of control and the T/C [8] was 167 % of control and 200 % of control. The T/C [9] was 107 % of control and 121 % of control.
With `O=[n+]1c2c(n([O-])c3ccccc31)-c1cccc3cccc-2c13` the T/C [1] was 92 % of control and 100 % of control, the T/C [2] was 92 % of control and 106 % of control and the T/C [3] was 100 % of control and 103 % of control. The T/C [4] was 92 % of control and 100 % of control.
`N#CCSc1ncnc2nc[nH]c12` was tested, and the T/C [10] was 100 % of control, the T/C [11] was 103 % of control and the T/C [12] was 100 % of control and 103 % of control. For the same compound, the T/C [13] was 103 % of control and 106 % of control.
`CCCSc1ncnc2nc[nH]c12` was tested, and the T/C [14] was 100 % of control and 112 % of control, the T/C [15] was 96 % of control and 106 % of control and the T/C [16] was 96 % of control and 106 % of control. The T/C [17] was 109 % of control.
In the case of `O=NN(CCCl)C(=O)NCCCl`, the T/C [18] is reported as 194 % of control and 200 % of control and the T/C [19] is reported as 97 % of control and 110 % of control.
In the case of `O=C(O)CCCc1ccc(N(CCCl)CCCl)cc1`, the T/C [18] is reported as 103 % of control and the T/C [19] is reported as 106 % of control.
In the case of `CC(CCC(C)OS(C)(=O)=O)OS(C)(=O)=O` (stereo not drawn), the T/C [7] is reported as 100 % of control, the T/C [8] is reported as 103 % of control and 106 % of control and the T/C [9] is reported as 100 % of control and 109 % of control. The T/C [20] was 109 % of control and 112 % of control.
With `CCCNc1ncnc2[nH]ncc12` the T/C [21] was 97 % of control and 100 % of control, the T/C [18] was 97 % of control and 100 % of control and the T/C [19] was 97 % of control and 105 % of control. For the same compound, the T/C [1] was 100 % of control and 102 % of control.
`OCC1OC(n2cnc3c(Cl)ncnc32)C(O)C1O` (stereo not drawn) was tested, and the T/C [15] was 97 % of control and 100 % of control, the T/C [16] was 92 % of control and 100 % of control and the T/C [17] was 95 % of control and 102 % of control. The T/C [22] was 91 % of control and 92 % of control.
`N#[N+]c1cnc([O-])[nH]c1=O` was tested, and the T/C [23] was 100 % of control, the T/C [24] was 100 % of control and 112 % of control and the T/C [25] was 112 % of control and 118 % of control. The T/C [26] was 106 % of control.
In the case of `O=C(Nc1ccc(C2=NCCN2)cc1)c1ccc(C(=O)Nc2ccc(C3=NCCN3)cc2)c([N+](=O)[O-])c1`, the T/C (dose: 6.0 mg/kg/injection, vehicle: saline) is reported as 168 % of control, the T/C [8] is reported as 255 % of control and 297 % of control and the T/C (dose: 12.0 mg/kg/injection, vehicle: saline) is reported as 281 % of control and 300 % of control.
`N#C[C@@H]1C2C=CC(CC2)[C@H]1C#N` was tested, and the T/C (dose: 0.25 mg/kg/injection, vehicle: saline) was 97 % of control, the T/C (dose: 0.5 mg/kg/injection, vehicle: saline) was 102 % of control and 105 % of control and the T/C [27] was 88 % of control and 94 % of control. For the same compound, the T/C [6] was 97 % of control and 100 % of control.
With `CS(=O)(=O)OCCCl` the T/C [28] was 103 % of control, the T/C [29] was 106 % of control and 115 % of control and the T/C [30] was 100 % of control.
For `O=C(Nc1ccc(C2=NCCN2)cc1)c1ccc(C(=O)Nc2ccc(C3=NCCN3)cc2)c(Cl)c1`, the T/C (dose: 2.0 mg/kg/injection, vehicle: other) was 111 % of control and 115 % of control, the T/C (dose: 4.0 mg/kg/injection, vehicle: other) was 113 % of control and the T/C (dose: 8.0 mg/kg/injection, vehicle: other) was 168 % of control. For the same compound, the T/C (dose: 16.0 mg/kg/injection, vehicle: other) was 151 % of control and 197 % of control and the T/C (dose: 32.0 mg/kg/injection, vehicle: other) was 95 % of control.
`COc1ccc2c(c1OC)C(=O)O[C@@H]2[C@H]1c2c(cc3c(c2OC)OCO3)CCN1C` was tested, and the T/C (dose: 7.8 mg/kg/injection, vehicle: saline) was 100 % of control, the T/C (dose: 15.6 mg/kg/injection, vehicle: saline) was 100 % of control and the T/C [14] was 97 % of control and 102 % of control. For the same compound, the T/C [15] was 91 % of control and 97 % of control, the T/C [16] was 91 % of control and the T/C [17] was 91 % of control.
In the case of `CS(=O)(=O)OCC(O)C(O)C(O)C(O)COS(C)(=O)=O` (stereo not drawn), the T/C [1] is reported as 102 % of control, the T/C [2] is reported as 100 % of control and 111 % of control and the T/C [3] is reported as 100 % of control and 102 % of control. For the same compound, the T/C [4] was 100 % of control and 111 % of control and the T/C (dose: 400.0 mg/kg/injection, vehicle: saline) was 110 % of control.
`CN(C)c1nc(N(C)C)nc(N(C)C)n1` was tested, and the T/C [28] was 100 % of control and 103 % of control, the T/C [29] was 93 % of control and 106 % of control and the T/C [30] was 100 % of control and 109 % of control. The T/C (dose: 150.0 mg/kg/injection, vehicle: saline) was 100 % of control and 106 % of control.
`CC(=O)N(C)C` was tested, and the T/C [15] was 100 % of control and 107 % of control, the T/C [16] was 95 % of control and 102 % of control and the T/C [17] was 97 % of control and 105 % of control. For the same compound, the T/C [22] was 90 % of control and 100 % of control.
For `Oc1cc(CN(CCCl)CCCl)c(O)cc1CN(CCCl)CCCl`, the T/C (dose: 0.63 mg/kg/injection, vehicle: saline) was 100 % of control, the T/C [23] was 100 % of control and the T/C [24] was 106 % of control. The T/C [25] was 100 % of control.
In the case of `Nc1nc(=S)c2ncn(C3OC(CO)C(O)C3O)c2[nH]1` (stereo not drawn), the T/C [27] is reported as 178 % of control, the T/C [6] is reported as 182 % of control and the T/C [7] is reported as 103 % of control.
In the case of `Nc1nc(N)c2nc(CNc3ccc(C(=O)NC(CCC(=O)O)C(=O)O)cc3)cnc2n1` (stereo not drawn), the T/C (dose: 25.0 micrograms/kg/injection, vehicle: other) is reported as 105 % of control and 113 % of control, the T/C (dose: 50.0 micrograms/kg/injection, vehicle: other) is reported as 107 % of control and 121 % of control and the T/C (dose: 100.0 micrograms/kg/injection, vehicle: other) is reported as 110 % of control and 121 % of control. The T/C (dose: 200.0 micrograms/kg/injection, vehicle: other) was 94 % of control and 113 % of control.
For `C[C@H]1C(=O)O[C@@H]2CCN3CC=C(COC(=O)[C@](C)(O)[C@@]1(C)O)[C@H]23`, the T/C [21] was 103 % of control, the T/C [18] was 100 % of control and the T/C [19] was 103 % of control. The T/C [1] was 121 % of control.
For `CN(C)c1ccc(Nc2c3ccccc3nc3ccccc23)cc1`, the T/C (dose: 54.0 mg/kg/injection, vehicle: saline) was 159 % of control and 183 % of control, the T/C [5] was 183 % of control and 187 % of control and the T/C (dose: 120.0 mg/kg/injection, vehicle: saline) was 86 % of control.
For `S=P(N1CCOCC1)(N1CC1)N1CC1`, the T/C [24] was 100 % of control and 103 % of control, the T/C [25] was 100 % of control and 106 % of control and the T/C [26] was 100 % of control and 106 % of control.
In the case of `O=C(Nc1ccc(C2=NCCN2)cc1)c1cccc(C(=O)Nc2ccc(C3=NCCN3)cc2)c1`, the T/C [8] is reported as 121 % of control, the T/C [9] is reported as 121 % of control and the T/C [20] is reported as 157 % of control. The T/C (dose: 64.0 mg/kg/injection, vehicle: saline) was 186 % of control and 210 % of control.
In the case of `Clc1ncnc2nc[nH]c12`, the T/C [10] is reported as 94 % of control and 111 % of control, the T/C [11] is reported as 94 % of control and 100 % of control and the T/C [12] is reported as 97 % of control and 102 % of control. For the same compound, the T/C [13] was 100 % of control and 105 % of control.
In the case of `NC(CCSCc1ccc(N(CCCl)CCCl)cc1)C(=O)O` (stereo not drawn), the T/C (dose: 4.5 mg/kg/injection, vehicle: saline) is reported as 100 % of control, the T/C (dose: 9.0 mg/kg/injection, vehicle: saline) is reported as 106 % of control and 117 % of control and the T/C (dose: 18.0 mg/kg/injection, vehicle: saline) is reported as 106 % of control and 117 % of control. The T/C (dose: 36.0 mg/kg/injection, vehicle: saline) was 110 % of control and 111 % of control.
For `NC(Cc1ccc(N(CCCl)CCCl)cc1)C(=O)O` (stereo not drawn), the T/C [26] was 100 % of control.
`Nc1nc2n[nH]nc2c(=O)[nH]1` was tested, and the T/C (dose: 200.0 mg/kg/injection, vehicle: alkali diluted with saline) was 115 % of control and 86 % of control.
For `O=C(O)c1[nH]c(=O)[nH]c(=O)c1F`, the T/C [23] was 91 % of control, the T/C [24] was 94 % of control and the T/C [25] was 97 % of control and 100 % of control. The T/C [26] was 94 % of control and 100 % of control.
`CCN(CC)CCNc1ccc(C)c2sc3ccccc3c(=O)c12` was tested, and the T/C [3] was 106 % of control and the T/C [4] was 103 % of control and 106 % of control.
